Values after ≈ are worked out from the molar mass of the structure shown.
Assays:
[1] = Human Plasma Protein Binding (Test B); format: in vitro ADME; conditions: fraction unbound (fu)
Protocol: Human Plasma Protein Binding (Test B)
The assay was conducted according to the Human Plasma Protein Binding Assay described in pages 167-170 of Wernevik, J. et al., “A Fully Integrated Assay Panel for Early Drug Metabolism and Pharmacokinetics Profiling”, Assay and Drug Development Technologies, 2020, 18(4), 157-179. Data are reported in Table 36 as fraction unbound (fu) (% free). Where the assay was run multiple times for the same compound, the arithmetic mean is reported.

human RXFP1 = target: T1, human RXFP1 (Homo sapiens, UniProt Q9HBX9); experiment: RXFP1 Hu cAMP (Test A); format: cell-based; set-up: expressed in transfected cells; host or cells: Jump-In T-REx CHO-K1 cells (ThermoFisher), induced with 10 ng/ml doxycycline for 24 h; conditions: RXFP1 Hu cAMP; for EC50: read-out: Test A EC50
T1 sequence (Q9HBX9 1-757): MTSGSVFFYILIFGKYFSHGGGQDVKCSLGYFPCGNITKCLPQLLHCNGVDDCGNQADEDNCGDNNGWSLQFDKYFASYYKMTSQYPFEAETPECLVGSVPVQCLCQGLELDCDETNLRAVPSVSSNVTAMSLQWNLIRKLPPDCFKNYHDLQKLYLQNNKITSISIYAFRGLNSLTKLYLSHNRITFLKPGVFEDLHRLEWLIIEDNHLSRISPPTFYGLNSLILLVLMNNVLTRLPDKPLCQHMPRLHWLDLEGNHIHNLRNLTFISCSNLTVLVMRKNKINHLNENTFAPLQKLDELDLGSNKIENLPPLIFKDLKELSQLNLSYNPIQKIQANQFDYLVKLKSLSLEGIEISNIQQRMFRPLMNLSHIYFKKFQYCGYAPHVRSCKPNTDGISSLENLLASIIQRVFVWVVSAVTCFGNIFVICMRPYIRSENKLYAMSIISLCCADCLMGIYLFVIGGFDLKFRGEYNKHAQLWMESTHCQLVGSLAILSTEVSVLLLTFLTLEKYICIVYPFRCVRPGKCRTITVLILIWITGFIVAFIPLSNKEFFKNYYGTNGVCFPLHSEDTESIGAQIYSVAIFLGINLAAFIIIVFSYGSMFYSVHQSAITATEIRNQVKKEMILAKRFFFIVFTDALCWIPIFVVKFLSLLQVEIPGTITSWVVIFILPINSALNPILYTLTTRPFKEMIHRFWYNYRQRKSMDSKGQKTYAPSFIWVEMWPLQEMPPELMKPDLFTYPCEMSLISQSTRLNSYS
How it was run: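 Read-out is HTRF signal, inversely proportional to cAMP, converted to cAMP amount by standard curve. Stimulation occurred in inducible CHO-K1 cells expressing the human receptor with phosphodiesterases blocked by 0.5 mM IBMX.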

Solubility (Test F) = format: physicochemical; conditions: arithmetic mean if run multiple times
Protocol: The assay was conducted according to the Solubility Assay described in pages 164-167 of Wernevik, J. et al., “A Fully Integrated Assay Panel for Early Drug Metabolism and Pharmacokinetics Profiling”, Assay and Drug Development Technologies, 2020, 18(4), 157-179. Data are reported in Table 36 as solubility ([…]. Where the assay was run multiple times for the same compound, the arithmetic mean is reported.

[2] = Rat Hepatocyte Stability (Test E); format: in vitro ADME; conditions: rat, hepatocytes, geometric mean if run multiple times
Protocol: Rat Hepatocyte Stability (Test E)
The assay was conducted according to the Rat Hepatocyte Stability Assay described in pages 170-174 of Wernevik, J. et al., “A Fully Integrated Assay Panel for Early Drug Metabolism and Pharmacokinetics Profiling”, Assay and Drug Development Technologies, 2020, 18(4), 157-179. Data are reported in Table 36 as mean Clint(μl/min/10^6 cells). Where the assay was run multiple times for the same compound, the geometric mean is reported.

[3] = Human Liver Microsomal Stability (Test C); format: in vitro ADME; conditions: human, liver microsomes
Protocol: Human Liver Microsomal Stability (Test C)
The assay was conducted according to the Human Liver Microsome Stability Assay described in pages 170-174 of Wernevik, J. et al., “A Fully Integrated Assay Panel for Early Drug Metabolism and Pharmacokinetics Profiling”, Assay and Drug Development Technologies, 2020, 18(4), 157-179. Data are reported in Table 36 as CLint (μl/min/mg protein). Where the assay was run multiple times for the same compound, the arithmetic mean is reported.

Test B Human Plasma Protein Binding (% free) [1]	Test A Sinf (human RXFP1)	EC50 (human RXFP1)	solubility (Solubility (Test F))	hepatocyte CLint [2]	microsomal CLint [3]	Compound
0.45 % free	101%	340 nM	950 µM (≈ 605 µg/mL)	59 µL/min/1e6 cells	33 µL/min/mg	COc1cc(F)c(-c2ccc(CCC(=O)O)cc2)cc1C(=O)N[C@@H]1CCC[C@@H]1C(=O)Nc1cccc(S(=O)(=O)C(F)(F)F)c1 [Example 321]
1.6 % free	110%	680 nM	420 µM (≈ 237 µg/mL)	120 µL/min/1e6 cells	23 µL/min/mg	COc1cc(F)c(O[C@H]2CC[C@@H](C(=O)O)CC2)cc1C(=O)N[C@@H]1[C@H]2CC[C@H](C2)[C@@H]1C(=O)Nc1cccc(C2CC2)c1 [Example 190]
0.050 % free	99%	250 nM	< 7 µM	12 µL/min/1e6 cells	8.1 µL/min/mg	COc1cc(F)c(-c2ccc(OC(C)(C)C(=O)O)cc2)cc1C(=O)N[C@@H]1[C@H]2CC[C@H](C2)[C@@H]1C(=O)Nc1cccc(S(=O)(=O)C(F)(F)F)c1 [Example 256, 2-((2′-fluoro-4′-methoxy-5′-(((1S,2R,3S,4R)-3-((3-((trifluoromethyl)sulfonyl)phenyl)carbamoyl)bicyclo[2.2.1]heptan-2-yl)carbamoyl)-[1,1′-biphenyl]-4-yl)oxy)-2-methylpropanoic acid]
3.6 % free	–	> 40000 nM	> 1000 µM	18 µL/min/1e6 cells	< 3 µL/min/mg	COc1cc(F)c(O[C@H]2CC[C@@H](C(=O)O)CC2)cc1C(=O)N[C@@H]1[C@H]2CC[C@H](C2)[C@@H]1C(=O)Nc1cc(Cl)cnn1 [Example 30, (1S,4s)-4-(5-(((1S,2R,3S,4R)-3-((5-Chloropyridazin-3-yl)carbamoyl)bicyclo[2.2.1]heptan-2-yl)carbamoyl)-2-fluoro-4-methoxyphenoxy)cyclohexane-1-carboxylic acid]
1.9 % free	–	> 50000 nM	60 µM (≈ 36.8 µg/mL)	< 1 µL/min/1e6 cells	< 3 µL/min/mg	COc1cc(F)c(O[C@H]2CC[C@@H](C(=O)O)CC2)cc1C(=O)N[C@@H]1[C@H](C(=O)Nc2ccc(F)c(C(F)(F)F)c2)[C@@H]2CC[C@H]1O2 [Example 50, (1S,4s)-4-(2-Fluoro-5-(((1R,2R,3S,4S)-3-((4-fluoro-3-(trifluoromethyl)phenyl)carbamoyl)-7-oxabicyclo[2.2.1]heptan-2-yl)carbamoyl)-4-methoxyphenoxy)cyclohexane-1-carboxylic acid]
0.64 % free	103%	270 nM	290 µM (≈ 176 µg/mL)	38 µL/min/1e6 cells	36 µL/min/mg	COc1cc(F)c(O[C@H]2CC[C@@H](C(=O)O)CC2)cc1C(=O)N[C@@H]1[C@H]2CC[C@H](C2)[C@@H]1C(=O)Nc1cc(C)cc(C(F)(F)F)c1 [Example 188]
31 % free	100%	680 nM	860 µM (≈ 476 µg/mL)	18 µL/min/1e6 cells	< 3 µL/min/mg	COc1cc(C#N)c(O[C@H]2CC[C@@](C)(C(=O)O)CC2)cc1C(=O)N[C@@H]1[C@H]2CC[C@H](C2)[C@@H]1C(=O)NCC1(OC)CC1 [Example 111]
2.5 % free	114%	32 nM	330 µM (≈ 191 µg/mL)	41 µL/min/1e6 cells	54 µL/min/mg	COc1cc(C#N)c(O[C@H]2CC[C@@](C)(C(=O)O)CC2)cc1C(=O)N[C@@H]1[C@H]2CC[C@H](C2)[C@@H]1C(=O)NCC1CCCCCC1 [Example 82]
4.2 % free	89%	720 nM	820 µM (≈ 451 µg/mL)	21 µL/min/1e6 cells	35 µL/min/mg	COc1cc(C#N)c(O[C@H]2C[C@@]3(C2)C[C@H](C(=O)O)C3)cc1C(=O)N[C@@H]1[C@H]2CC[C@H](C2)[C@@H]1C(=O)NCC1(C)CCC1 (single isomer, unassigned) [Example 6, (2R*,4r,6R)-6-(2-Cyano-4-methoxy-5-(((1S,2R,3S,4R)-3-(((1-methylcyclobutyl)methyl)carbamoyl)bicyclo[2.2.1]heptan-2-yl)carbamoyl)phenoxy)spiro[3.3]heptane-2-carboxylic acid]
0.89 % free	107%	130 nM	> 1000 µM	84 µL/min/1e6 cells	57 µL/min/mg	COc1cc(F)c(-c2ccc([C@@H]3C[C@H]3C(=O)O)nc2)cc1C(=O)N[C@@H]1[C@H]2CC[C@H](C2)[C@@H]1C(=O)Nc1cccc(S(=O)(=O)C(F)(F)F)c1 (single isomer, unassigned) [Example 261, (1R*,2R*)-2-(5-(2-Fluoro-4-methoxy-5-(((1S,2R,3S,4R)-3-((3-((trifluoromethyl)sulfonyl)phenyl)carbamoyl)bicyclo[2.2.1]heptan-2-yl)carbamoyl)phenyl)pyridin-2-yl)cyclopropane-1-carboxylic acid]
0.40 % free	88%	130 nM	990 µM (≈ 622 µg/mL)	> 300 µL/min/1e6 cells	29 µL/min/mg	COc1cc(F)c(O[C@H]2CC[C@@H](C(=O)O)CC2)cc1C(=O)N[C@@H]1[C@H]2CC[C@H](C2)[C@@H]1C(=O)Nc1ccc(C#N)c(Br)c1 [Example 27, (1S,4s)-4-(5-(((1S,2R,3S,4R)-3-((3-Bromo-4-cyanophenyl)carbamoyl)bicyclo[2.2.1]heptan-2-yl)carbamoyl)-2-fluoro-4-methoxyphenoxy)cyclohexane-1-carboxylic acid]
50 % free	–	> 5000 nM	780 µM (≈ 426 µg/mL)	17 µL/min/1e6 cells	< 3 µL/min/mg	COc1cc(C#N)c(O[C@H]2CC[C@@](C)(C(=O)O)CC2)cc1C(=O)N[C@@H]1[C@H]2CC[C@H](C2)[C@@H]1C(=O)NC[C@H](F)CO [Example 89]
1.7 % free	112%	9.7 nM	170 µM (≈ 101 µg/mL)	29 µL/min/1e6 cells	> 300 µL/min/mg	COc1cc(C#N)c(O[C@H]2CC[C@@](C)(C(=O)O)CC2)cc1C(=O)N[C@@H]1[C@H]2CC[C@H](C2)[C@@H]1C(=O)NCC1(CC(C)C)CCC1 [Example 106]
1.5 % free	101%	130 nM	83 µM (≈ 48.2 µg/mL)	23 µL/min/1e6 cells	34 µL/min/mg	COc1cc(F)c(O[C@H]2CC[C@@H](C(=O)O)CC2)cc1C(=O)N[C@@H]1[C@H]2CC[C@H](C2)[C@@H]1C(=O)Nc1cccc(C(C)(C)C)c1 [Example 189]

Reference: US11667602B2, “Compounds and their use” (AstraZeneca AB, priority 2020, dated 2023)
